Measurements taken from patent US11040954B1, “CXCR3 receptor agonists” (RECEPTOS LLC, priority 2016, dated 2021).

Target: T1, CXCR3 (Homo sapiens, UniProt P49682)
T1 construct: host or cells: CHO-K1 (cAMP Hunter CHOK1 CXCR3 Gi cell line)
T1 sequence (P49682 1-368): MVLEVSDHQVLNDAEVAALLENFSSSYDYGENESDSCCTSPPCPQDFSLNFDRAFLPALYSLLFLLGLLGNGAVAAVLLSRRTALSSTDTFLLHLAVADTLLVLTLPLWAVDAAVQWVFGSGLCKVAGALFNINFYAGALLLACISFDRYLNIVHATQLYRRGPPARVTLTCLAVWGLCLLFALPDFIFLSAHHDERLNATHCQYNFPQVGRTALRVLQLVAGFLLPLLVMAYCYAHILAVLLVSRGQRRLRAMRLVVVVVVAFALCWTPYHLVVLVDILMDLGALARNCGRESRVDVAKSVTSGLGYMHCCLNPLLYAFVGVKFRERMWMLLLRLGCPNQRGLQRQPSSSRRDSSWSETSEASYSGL
Experiment: CXCR3 cAMP agonist assay (cAMP Hunter CHOK1 CXCR3 Gi cell line, forskolin-stimulated, HitHunter cAMP detection)
Format: cell-based
Conditions: cAMP Hunter CHOK1 CXCR3 Gi cells, 20 μM forskolin, 30 minutes; read-out: Activity (CXCR3 cAMP agonist assay compound EC50)
Outline: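 Agonist activity was measured as suppression of forskolin (20 μM)-induced cAMP, read by luminescent enzyme-fragment complementation with a cAMP standard curve and CXCL11 defining full efficacy. Assay used 50,000 CXCR3 Gi CHOK1 cells/well in pH 7.4 HEPES-buffered HBSS with 0.1% BSA, compound 0-10 μM over 12 points, 30 min incubation.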

## Cc1c(Cl)ccc(NC(=O)C2(NC(=O)[C@@H]3Cc4ccccc4CN3C(=O)CCC(=O)c3ccccc3)CCNCC2)c1C [Compound 11-4]
  EC50: 0.05 to 0.25 µM

## O=C(CCC(=O)N1Cc2ccccc2C[C@H]1C(=O)NC1(C(=O)Nc2cccc(Cl)c2Cl)CCNCC1)c1ccccc1 [Compound 11-5]
  EC50: > 0.5 µM

## Cc1cc(NC(=O)C2(NC(=O)[C@@H]3Cc4ccccc4CN3C(=O)CCC(=O)c3ccccc3)CCNCC2)c(Cl)cc1Cl [Compound 11-6]
  EC50: < 0.05 µM

## Cc1cc(NC(=O)[C@H](CCN)NC(=O)[C@@H]2Cc3ccccc3CN2C(=O)CCC(=O)N2C[C@@H](C)O[C@@H](C)C2)ccc1Cl [Compound 12-1, (S)—N—((S)-4-amino-1-((4-chloro-3-methylphenyl)amino)-1-oxobutan-2-yl)-2-(4-((2R,6S)-2,6-dimethylmorpholino)-4-oxobutanoyl)-1,2,3,4-tetrahydroisoquinoline-3-carboxamide]
  EC50: 0.05 to 0.25 µM

## Cc1cc(NC(=O)[C@H](CCN)NC(=O)[C@@H]2Cc3ccccc3CN2C(=O)CCC(=O)NCCC(C)(C)C)ccc1Cl [Compound 12-2]
  EC50: < 0.05 µM

## Cc1cc(NC(=O)[C@H](CCN)NC(=O)[C@@H]2Cc3ccccc3CN2C(=O)CCC(=O)NCC2CCCCC2)ccc1Cl [Compound 12-3]
  EC50: 0.05 to 0.25 µM

## Cc1cc(NC(=O)[C@H](CCN)NC(=O)[C@@H]2Cc3ccccc3CN2C(=O)CCC(=O)N2CCC(F)(F)CC2)ccc1Cl [Compound 12-4]
  EC50: < 0.05 µM

## Cc1cc(NC(=O)[C@H](CCN)NC(=O)[C@@H]2Cc3ccccc3CN2C(=O)CCC(=O)N2CCCC2)ccc1Cl [Compound 12-5]
  EC50: < 0.05 µM

## Cc1cc(NC(=O)[C@H](CCN)NC(=O)[C@@H]2Cc3ccccc3CN2C(=O)CCC(=O)N2CCC(O)CC2)ccc1Cl [Compound 12-6]
  EC50: 0.05 to 0.25 µM

## Cc1cc(NC(=O)[C@H](CCN)NC(=O)[C@@H]2Cc3ccccc3CN2C(=O)CCC(=O)N2CC3(CCCCC3)C2)ccc1Cl [Compound 12-7]
  EC50: < 0.05 µM

## Cc1cc(NC(=O)[C@H](CCN)NC(=O)[C@@H]2Cc3ccccc3CN2C(=O)CCC(=O)N2CCC(F)(F)C2)ccc1Cl [Compound 12-8]
  EC50: 0.05 to 0.25 µM

## Cc1cc(NC(=O)[C@H](CCN)NC(=O)[C@@H]2Cc3ccccc3CN2C(=O)CCC(=O)N2CC3(COC3)C2)ccc1Cl [Compound 12-9]
  EC50: > 0.5 µM

## Cc1cc(NC(=O)[C@H](CCN)NC(=O)[C@@H]2Cc3ccccc3CN2C(=O)CCC(=O)NCC2CCCC2)ccc1Cl [Compound 12-10]
  EC50: 0.05 to 0.25 µM

## Cc1cc(NC(=O)[C@H](CCN)NC(=O)[C@@H]2Cc3ccccc3CN2C(=O)CCC(=O)N2CC(C)(c3ccccc3)C2)ccc1Cl [Compound 12-11]
  EC50: < 0.05 µM

## Cc1cc(NC(=O)[C@H](CCN)NC(=O)[C@@H]2Cc3ccccc3CN2C(=O)CCC(=O)NCC2CCOCC2)ccc1Cl [Compound 12-12]
  EC50: > 0.5 µM

## Cc1cc(NC(=O)[C@H](CCN)NC(=O)[C@@H]2Cc3ccccc3CN2C(=O)CCC(=O)N2CCCCCC2)ccc1Cl [Compound 12-13]
  EC50: < 0.05 µM

## CCN(CC)C(=O)CCC(=O)N1Cc2ccccc2C[C@H]1C(=O)N[C@@H](CCN)C(=O)Nc1ccc(Cl)c(C)c1 [Compound 12-14]
  EC50: 0.05 to 0.25 µM

## Cc1cc(NC(=O)[C@H](CCN)NC(=O)[C@@H]2Cc3ccccc3CN2C(=O)CCC(=O)N2CCN(S(C)(=O)=O)CC2)ccc1Cl [Compound 12-15]
  EC50: 0.05 to 0.25 µM

## Cc1cc(NC(=O)[C@H](CCN)NC(=O)[C@@H]2Cc3ccccc3CN2C(=O)CCC(=O)N(C)Cc2ccccc2)ccc1Cl [Compound 12-16]
  EC50: > 0.5 µM

## Cc1cc(NC(=O)[C@H](CCN)NC(=O)[C@@H]2Cc3ccccc3CN2C(=O)CCC(=O)N2CCS(=O)(=O)CC2)ccc1Cl [Compound 12-17]
  EC50: 0.05 to 0.25 µM

## Cc1cc(NC(=O)[C@H](CCN)NC(=O)[C@@H]2Cc3ccccc3CN2C(=O)CCC(=O)NCc2ccccc2)ccc1Cl [Compound 12-18]
  EC50: > 0.5 µM

## Cc1cc(NC(=O)[C@H](CCN)NC(=O)[C@@H]2Cc3ccccc3CN2C(=O)CCC(=O)N2CC(F)C2)ccc1Cl [Compound 12-19]
  EC50: 0.25 to 0.5 µM

## Cc1cc(NC(=O)[C@H](CCN)NC(=O)[C@@H]2Cc3ccccc3CN2C(=O)CCC(=O)N2CCCOCC2)ccc1Cl [Compound 12-20]
  EC50: < 0.05 µM

## Cc1cc(NC(=O)[C@@H](CCN)NC(=O)[C@@H]2Cc3ccccc3CN2C(=O)CCC(=O)N2CCCOCC2)ccc1Cl [Compound 12-21]
  EC50: < 0.05 µM

## Cc1cc(NC(=O)[C@H](CCN)NC(=O)[C@@H]2Cc3ccccc3CN2C(=O)CCC(=O)N2CC(C(C)(C)O)C2)ccc1Cl [Compound 12-22]
  EC50: < 0.05 µM

## Cc1cc(NC(=O)[C@H](CCN)NC(=O)[C@@H]2Cc3ccccc3CN2C(=O)CCC(=O)N2CCOCC2(C)C)ccc1Cl [Compound 12-23]
  EC50: < 0.05 µM

## Cc1cc(NC(=O)[C@H](CCN)NC(=O)[C@@H]2Cc3ccccc3CN2C(=O)CCC(=O)N2CC3(CCOCC3)C2)ccc1Cl [Compound 12-24]
  EC50: 0.25 to 0.5 µM

## Cc1cc(NC(=O)[C@H](CCN)NC(=O)[C@@H]2Cc3ccccc3CN2C(=O)CCC(=O)N2CCCC[C@H]2C)ccc1Cl [Compound 12-25]
  EC50: < 0.05 µM

## Cc1cc(NC(=O)[C@H](CCN)NC(=O)[C@@H]2Cc3ccccc3CN2C(=O)CCC(=O)N2CCCCC2(C)C)ccc1Cl [Compound 12-26]
  EC50: < 0.05 µM

## Cc1cc(NC(=O)[C@H](CCN)NC(=O)[C@@H]2Cc3ccccc3CN2C(=O)CCC(=O)N2CCOC[C@@H]2C)ccc1Cl [Compound 12-27]
  EC50: 0.05 to 0.25 µM

## Cc1cc(NC(=O)[C@H](CCN)NC(=O)[C@@H]2Cc3ccccc3CN2C(=O)CCC(=O)N2CCC(C)(C)CC2)ccc1Cl [Compound 12-28]
  EC50: < 0.05 µM

## Cc1cc(NC(=O)[C@H](CCN)NC(=O)[C@@H]2Cc3ccccc3CN2C(=O)CCC(=O)N2CCC(C)(C)C2)ccc1Cl [Compound 12-29]
  EC50: < 0.05 µM

## Cc1cc(NC(=O)[C@H](CCN)NC(=O)[C@@H]2Cc3ccccc3CN2C(=O)CCC(=O)N2CCC2)ccc1Cl [Compound 12-30]
  EC50: 0.05 to 0.25 µM

## Cc1cc(NC(=O)[C@H](CCN)NC(=O)[C@@H]2Cc3ccccc3CN2C(=O)CCC(=O)N2CCCC2(C)C)ccc1Cl [Compound 12-31]
  EC50: < 0.05 µM

## Cc1cc(NC(=O)[C@H](CCN)NC(=O)[C@@H]2Cc3ccccc3CN2C(=O)CCC(=O)N2CC3CCC2C3)ccc1Cl (some centres unmarked) [Compound 12-32]
  EC50: < 0.05 µM

## Cc1cc(NC(=O)[C@H](CCN)NC(=O)[C@@H]2Cc3ccccc3CN2C(=O)CCC(=O)N2CCN(C3CC3)CC2)ccc1Cl [Compound 12-33]
  EC50: 0.05 to 0.25 µM

## Cc1cc(NC(=O)[C@H](CCN)NC(=O)[C@@H]2Cc3ccccc3CN2C(=O)CCC(=O)N2CCCN(C)CC2)ccc1Cl [Compound 12-34]
  EC50: 0.05 to 0.25 µM

## Cc1cc(NC(=O)[C@H](CCN)NC(=O)[C@@H]2Cc3ccccc3CN2C(=O)CCC(=O)N2CCN(C)[C@H](C)C2)ccc1Cl [Compound 12-35]
  EC50: < 0.05 µM

## Cc1cc(NC(=O)[C@H](CCN)NC(=O)[C@@H]2Cc3ccccc3CN2C(=O)CCC(=O)N2CCN(C)[C@@H](C)C2)ccc1Cl [Compound 12-36]
  EC50: < 0.05 µM

## Cc1cc(NC(=O)[C@H](CCN)NC(=O)[C@@H]2Cc3ccccc3CN2C(=O)CCC(=O)N2CCN(C)C(=O)C2)ccc1Cl [Compound 12-37]
  EC50: 0.05 to 0.25 µM

## Cc1cc(NC(=O)[C@H](CCN)NC(=O)[C@@H]2Cc3ccccc3CN2C(=O)CCC(=O)N2CC(Cc3ccccc3)C2)ccc1Cl [Compound 12-38]
  EC50: 0.25 to 0.5 µM

## Cc1cc(NC(=O)[C@H](CCN)NC(=O)[C@@H]2Cc3ccccc3CN2C(=O)CCC(=O)N2C[C@H](C)C[C@H](C)C2)ccc1Cl [Compound 12-39]
  EC50: < 0.05 µM

## Cc1cc(NC(=O)[C@H](CCN)NC(=O)[C@@H]2Cc3ccccc3CN2C(=O)CCC(=O)N2CC(C(C)(C)C)C2)ccc1Cl [Compound 12-40]
  EC50: < 0.05 µM

## Cc1cc(NC(=O)[C@H](CCN)NC(=O)[C@@H]2Cc3ccccc3CN2C(=O)CCC(=O)N2C(C)CCCC2C)ccc1Cl (some centres unmarked) [Compound 12-41]
  EC50: < 0.05 µM

## COC1CCN(C(=O)CCC(=O)N2Cc3ccccc3C[C@H]2C(=O)N[C@@H](CCN)C(=O)Nc2ccc(Cl)c(C)c2)CC1 [Compound 12-42]
  EC50: < 0.05 µM

## Cc1cc(NC(=O)[C@H](CCN)NC(=O)[C@@H]2Cc3ccccc3CN2C(=O)CCC(=O)N2[C@H](C)CCC[C@@H]2C)ccc1Cl [Compound 12-43]
  EC50: < 0.05 µM

## Cc1cc(NC(=O)[C@H](CCN)NC(=O)[C@@H]2Cc3ccccc3CN2C(=O)CCC(=O)N2CCC(C#N)CC2)ccc1Cl [Compound 12-44]
  EC50: < 0.05 µM

## Cc1cc(NC(=O)[C@H](CCN)NC(=O)[C@@H]2Cc3ccccc3CN2C(=O)CCC(=O)N2CCC[C@@H]2C)ccc1Cl [Compound 12-45]
  EC50: < 0.05 µM

## Cc1cc(NC(=O)[C@H](CCN)NC(=O)[C@@H]2Cc3ccccc3CN2C(=O)CCC(=O)N2CCC[C@H]2C)ccc1Cl [Compound 12-46]
  EC50: < 0.05 µM

## Cc1cc(NC(=O)[C@H](CCN)NC(=O)[C@@H]2Cc3ccccc3CN2C(=O)CCC(=O)N2C(C)CCC2C)ccc1Cl (some centres unmarked) [Compound 12-47]
  EC50: < 0.05 µM

## Cc1cc(NC(=O)[C@H](CCN)NC(=O)[C@@H]2Cc3ccccc3CN2C(=O)CCC(=O)N2CCC(O)C2)ccc1Cl (some centres unmarked) [Compound 12-48]
  EC50: 0.05 to 0.25 µM

## Cc1cc(NC(=O)[C@H](CCN)NC(=O)[C@@H]2Cc3ccccc3CN2C(=O)CCC(=O)N2CC[C@H](N(C)C)C2)ccc1Cl [Compound 12-49]
  EC50: < 0.05 µM

## Cc1cc(NC(=O)[C@H](CCN)NC(=O)[C@@H]2Cc3ccccc3CN2C(=O)CCC(=O)N2CC[C@@H](N(C)C)C2)ccc1Cl [Compound 12-50]
  EC50: < 0.05 µM
